Consider `CCN(CC)Cc1c([O-])c(Cl)cc(Cl)c1Cl`, for which, where the note is “basic group”, the pKa (usually the pH at which an ionisable group is half protonated) is 11.8.
Same read-out and setting: the value for `CCOCCn1c(CN2CCC[NH+](CCCCn3cc(C(=O)[O-])cn3)CC2)nc2ccccc21` was 4.8.
Regarding `Cc1cccc(Cl)c1C(=O)O`, the pKa (acidic group) is 2.59.
`CCC(C)Nc1ccccc1` (centres undefined): where the note is “basic group”, the pKa was 5.47.
For `C[n+]1ccc2ccccc2c1S`, the pKa (acidic group) is -2.13.
On to `CC1[C@H](N)[C@H]1N` (some centres undefined), for which the pKa (basic group) came out at 8.98.
`Cc1ccccc1NCCS` had a pKa (acidic group) of 9.6.
On the same count and under the same terms, the value for `CC(C)(C)CC#CC(=O)O` was 2.54.
Take `CCCNc1ccncc1S(=O)(=O)NC(=O)NC(C)C`: under “basic group”, the pKa is 7.58.
As for `NC(=O)CS(=O)(=O)NC(N)=O`, the pKa (acidic group) amounted to 5.05.
On the same count and under the same terms, the same measure for `On1nnc2ccc(C(F)(F)F)cc21`: 3.97; for `CCCC1(Br)C(=O)NC(=O)NC1=O`: 6.6; for `CC(C)(/C=C/C(=O)[O-])c1cc(Br)ccc1O`: 10.
For the molecule `CSc1nc2cncnc2n1C`, under “basic group”, the pKa was 2.98.
In the case of `CCC(=O)c1cc(C(=O)C(C)(C)C)n[nH]1`, under “acidic group”, the pKa worked out at 9.7.
As for `Cn1ccnc1`, where the note is “basic group”, the pKa was 7.15.
`Cc1ccccc1-c1nnn[nH]1`: the pKa (acidic group) was determined as 4.09.
Same read-out and setting: the same measure for `C[NH+](C)CCCCCCCCNC(=O)/C=N/O`: 8.97; for `O=c1ccccc(O)c1O`: 6.72.
In turn, `O=C([O-])c1ccnc2ccccc12` had a pKa (basic group) of 4.76.
Still for that read-out and setting: the same measure for `CC1CC2CCN1CC2` (centres undefined): 11.3.
The same measure, in the same setting: the same measure for `Cc1ccnc(N)n1`: 4.2.
The same measure, in the same setting: the same measure for `C[Si](C)(C)CN`: 10.9.
In the case of `Cc1cccc(CN(C)C)c1O`, the pKa (acidic group) was 11.1 and the pKa (basic group) amounted to 8.18.
With `Cc1cc(Br)c(N)c(Br)c1`, where the note is “basic group”, the pKa was 0.69.
Regarding `C=CCc1ccc(O)c(OC)c1`, under “acidic group”, the pKa was 10.
Regarding `Nc1ccc(CC(=O)[O-])cc1`, under “basic group”, the pKa was determined as 5.2.
`CC1(C)CC(=O)C=C(N2CCCC2)C1`: the pKa (basic group) amounted to 3.15.
`O=C(O)c1cc[nH+]cc1` displayed a pKa (acidic group) of 1.71.
Where the note is “basic group”, `CCN(CC)CCCCCCNc1c2ccc(Cl)cc2nc2ccc(OC)cc12` gave a pKa of 10.3.
In the case of `[S-]c1ncc2nc[nH]c2n1`, the pKa was determined as 10.4 (acidic group) and 7.15 (basic group).
Consider `NCCCCc1ccncc1`, for which, for the setting “basic group”, the pKa turned out to be 10.2.
On the same count and under the same terms, the value for `CCOC(=O)c1cnc2cc([N+](=O)[O-])ccc2c1[O-]` was 9.32.
Still for that read-out and setting: the value for `COc1ccc(N(C)C)cc1` was 5.86; that for `CNc1nnc(-c2ccccc2)s1` was 2.8.
For `S=C(Nc1ccccc1)c1cccc(Br)c1`, where the note is “acidic group”, the pKa came out at 10.5.
In turn, `Cc1cccc(N)c1C` yielded a pKa (basic group) of 4.56.
As for `Nc1nc(N)c2[nH]cnc2n1`, the pKa by setting is: (acidic group) 10.8; (basic group) 5.05.
Regarding `C[N+]1(CCCCC(=O)O)CCCCC1`, the pKa (acidic group) stood at 4.33.
For the molecule `CC(C)NCCCCCCNC(C)C`, the pKa (basic group) was 11.2.
Regarding `Cc1cc([C@@H](N)CO)c(O)c([C@@H](N)CO)c1`, where the note is “basic group”, the pKa came out at 9.
For `CCOCCNc1ccccc1`, the pKa (basic group) was found to be 4.04.
As to `Nc1nnn[nH]1`, the pKa by setting is: (acidic group) 5.98; (basic group) 1.81.
As to `C[N+](C)(C)/N=C(/O)c1ccccc1`, the pKa (acidic group) worked out at 4.29.
As for `N[C@@H]1CCC[C@H](O)C1`, for the setting “basic group”, the pKa was 10.1.
On the same count and under the same terms, the value for `CCCCNc1ncnc2c1cnn2C` was 4.22.
`O=C(O)CC1NC(=O)c2ccccc2O1` (centres undefined) displayed a pKa (acidic group) of 4.9.
On the same count and under the same terms, the same measure for `Cc1ccc(C(=S)Nc2ccc(F)cc2)cc1`: 11.
For `Nc1ccc2nccnc2c1`, where the note is “basic group”, the pKa stood at 2.95.
Regarding `Nc1cccc(Cl)c1`, the pKa (basic group) was 3.59.
The same measure, in the same setting: the same measure for `CN(C(=O)c1ccccc1)c1cccnc1`: 3.66.
Same read-out and setting: the same measure for `c1ccc(Cc2cc(-c3ccccc3)nnc2NCCN2CCOCC2)cc1`: 6.95.
With `CNC(=O)/C=C(/C)C(=O)O`, the pKa (acidic group) amounted to 3.23.
For the molecule `C=C1[C@@H]2CC3C4N5C[C@]6(C)C[C@@H](OC(C)=O)[C@H](OC(C)=O)[C@]47C6[C@@H]5C[C@]3([C@H]1OC(C)=O)[C@@]7(O)C2`, under “basic group”, the pKa is 8.35.
As to `NNC(=O)c1ccccc1N`, the pKa amounted to 12.8 (acidic group) and 3.47 (basic group).
For `C1CCC(NC2CCCCO2)OC1` (centres undefined), the pKa (basic group) turned out to be 8.1.
With `O=C(O)[C@H]1CC[C@@H](O)CC1`, for the setting “acidic group”, the pKa is 4.84.
As to `O=C1OCC(O)=C1O`, the pKa (acidic group) came out at 4.4.
On the same count and under the same terms, the value for `C=C/C(C)=C/[C@@H](C)C(=O)C[C@@H](O)CC1CC(=O)NC(=O)C1` was 11.2.
Under “basic group”, `COc1cc(Br)cc(C(=O)N[C@@H]2C[C@H]3CC[C@@H](C2)N3Cc2ccccc2)c1OC` registered a pKa of 8.84.
`c1ccc(-c2[nH]cc[nH+]2)nc1`: the pKa (basic group) was determined as 0.6.
Molecule `NCCC[NH2+]CCCC[NH3+]` came in with a pKa (basic group) of 8.35.
With `O=C(O)Cn1ncnn1`, the pKa (acidic group) came to 2.12.
Take `C=CCN(CC=C)CCCN(CC=C)CC=C`: the pKa (basic group) is 8.8.
On the same count and under the same terms, the value for `CCN(CC)CC(=O)Nc1cc(C)cc(C)c1` was 8.01.
Same read-out and setting: the value for `CCOCCN(CCOCC)c1ccccc1` was 4.1; that for `c1nc(Cc2c[nH]c(Cc3[nH]cc[nH+]3)n2)c[nH]1` was 6.15.
On the same count and under the same terms, the same measure for `C=CCN1CCOCC1`: 7.05; for `COc1cc(OC)c(OC)c(C(=O)N[C@H]2C[C@H]3CC[C@@H](C2)N3Cc2ccccc2)c1`: 8.84; for `Nc1cccc2c1ccc1ncccc12`: 5.2.
For `c1cnc2nc[nH]c2c1`, the pKa is, setting by setting: (acidic group) 11.1; (basic group) 3.95.
Turning to `N[n+]1ccccc1O`, the pKa (acidic group) is 2.1.
`CC(=O)CC(=O)O` gave a pKa (acidic group) of 3.09.
Regarding `SCCNCc1cccs1`, the pKa (basic group) was 8.93.
Consider `CNCCNC`, for which, where the note is “basic group”, the pKa was found to be 10.1.
The same measure, in the same setting: the same measure for `CN1CC1`: 7.86.
Consider `COc1c(O)cccc1CN`, for which the pKa worked out at 10.5 (acidic group) and 8.89 (basic group).
In turn, `Nc1cccc(I)c1` returned a pKa (basic group) of 3.59.
Same read-out and setting: the same measure for `COc1ccc2c3c1O[C@H]1[C@@H](O)CC[C@H]4[C@@H](C2)N(C)CC[C@@]341`: 8.71; for `Nc1ccc2cnccc2c1`: 7.17.
In the case of `c1c[nH]c(Cc2nc(Cc3c[nH]cn3)c[nH]2)n1`, the pKa (basic group) is 7.26.
Molecule `CCCc1c(C)[nH][n+](C)c1[O-]` came in with a pKa (acidic group) of 10.5.
Take `CC(C)N1C[Si](C)(C)O[Si](C)(C)C1`: the pKa (basic group) came to 10.
Still for that read-out and setting: the same measure for `Cc1cc(C)[n+](C)c([S-])n1`: 3.15.
Molecule `c1cc2c(cn1)CCCC2` showed a pKa (basic group) of 6.65.
Regarding `N#CC(C#N)=NNc1ccccc1[N+](=O)[O-]`, the pKa is 5.8 (acidic group) and -0.76 (basic group).
Molecule `NCC[NH3+]` returned a pKa (basic group) of 7.14.
Turning to `Cc1ccc(C(C)C)cc1O`, the pKa (acidic group) worked out at 10.3.
Under “acidic group”, `CC(=O)C(Cc1ccc(Cl)cc1)C(C)=O` had a pKa of 10.2.
On the same count and under the same terms, the value for `CC(C)(C)c1cc([N+](=O)[O-])cc(C(C)(C)C)c1O` was 6.92.
In turn, `CC(C)(C)n1ccnc1` returned a pKa (basic group) of 7.35.
On the same count and under the same terms, the same measure for `CCOCCn1c(N2CCCN(CCCCn3cccn3)CC2)nc2ccccc21`: 8.5.
Molecule `COc1ccccc1/C=C\C(=O)O` gave a pKa (acidic group) of 4.27.
For `O=C([O-])c1cc(-c2ccccc2)nnc1NCC[NH+]1CCOCC1`, under “basic group”, the pKa is 3.33.
On the same count and under the same terms, the same measure for `CC(Cc1ccccc1)N(C)CCC#N` (centres undefined): 6.95.
On the same count and under the same terms, the value for `Cc1cc(C(c2ccc(N)cc2)c2ccc(N)cc2)ccc1[NH3+]` was 3.8.
`ON=C(c1ccccc1)c1ccccc1` showed a pKa (acidic group) of 11.3.
`Cc1c(Cl)cc2nnn(O)c2c1[N+](=O)[O-]` yielded a pKa (acidic group) of 3.21.
Under “acidic group”, `CN(C)C(=S)SCC(=O)O` gave a pKa of 3.34.
Where the note is “basic group”, `C[n+]1c([O-])c([O-])nc2ccccc21` came in with a pKa of 9.74.
The same measure, in the same setting: the value for `Cc1cc(C)c(CO)c(C)n1` was 7.1.
Still for that read-out and setting: the same measure for `C[C@@H](Cc1ccccc1)N(C)C`: 9.4.
Still for that read-out and setting: the same measure for `[O-]c1c(Cl)cc(Cl)cc1CN1CCCCC1`: 11.1.
For the molecule `O/N=C(/Cc1ccccc1)NO`, the pKa by setting is: (acidic group) 10.7; (basic group) 4.25.
Turning to `Oc1ccccc1CN1CCCNCCCNCCC1`, under “basic group”, the pKa worked out at 9.87.
In the case of `O=c1[nH]c(=S)[nH]c2nc[nH]c12`, the pKa (acidic group) is 5.88.
Turning to `C=CCN1CCCCC1`, the pKa (basic group) worked out at 9.66.
The same measure, in the same setting: the value for `Cc1cc(Cl)n(C)c2nc3ccccc3c1-2` was 7.45.
As to `CC(C)N(C(=S)S)C(C)C`, the pKa (acidic group) is 4.3.
Where the note is “basic group”, `N/C(=N\O)C([NH3+])c1ccccc1` (centres undefined) registered a pKa of 2.3.
`Oc1cccc(Br)c1` came in with a pKa (acidic group) of 8.99.
With `NCCCCCc1ccccc1`, the pKa (basic group) was 10.5.
As to `CN(C)c1ncnc2c1ncn2[C@H]1O[C@@H](CO)[C@H](O)[C@@H]1O`, the pKa (basic group) is 3.65.
The molecule `CCCCC#CC(=O)O` gave a pKa (acidic group) of 2.61.
The same measure, in the same setting: the value for `C#CCCCCC(=O)O` was 4.58.
In the case of `Fc1ccccn1`, the pKa (basic group) is -0.44.
Under “acidic group”, `[NH3+]C/C=C\C(=O)O` gave a pKa of 3.53.
Under “basic group”, `Nc1ncc(Br)s1` came in with a pKa of 3.61.
The same measure, in the same setting: the value for `O=P([O-])([O-])C(NCc1ccncc1)c1ccccc1[O-]` (centres undefined) was 12.2; that for `Nc1ccc2ccncc2c1` was 6.2.
In turn, `Oc1cccc(Cl)c1` gave a pKa (acidic group) of 8.96.
`N[C@H](c1ccccc1)[C@H](O)c1ccccc1`: the pKa (basic group) worked out at 10.5.
On to `C/C=C\C=C/C(=O)O`, for which the pKa (acidic group) worked out at 4.51.
Where the note is “basic group”, `O=C([O-])CNCCc1nnn[n-]1` displayed a pKa of 9.23.
Same read-out and setting: the value for `O=C([O-])c1ccc2sc(Cn3ccnc3)cc2c1` was 6.34; that for `COc1ccc(NCO)cc1` was 3.72.
Molecule `NNC(=O)C(F)(F)C1(F)OC(F)(F)C(F)(F)C1(F)F` (centres undefined) came in with a pKa (acidic group) of 8.26.
Where the note is “basic group”, `NC(=O)CC(=O)c1ccccn1` returned a pKa of 8.23.
The same measure, in the same setting: the same measure for `COc1ccc(-c2cc3ccncc3[nH]2)c(OC)c1`: 8.29; for `CCC(=O)C(CCN(C)C)(c1ccccc1)c1ccccc1`: 9.23.
Take `CC[NH+](CC)Cc1cccc(C)c1O`: the pKa (acidic group) was found to be 10.
Molecule `NCCCCl` displayed a pKa (basic group) of 9.89.
Regarding `C/C(=C\C=C\C(C)C(=O)O)[C@H]1C[NH2+][C@H](C(=O)O)[C@H]1CC(=O)O` (some centres undefined), for the setting “acidic group”, the pKa came out at 2.1.
In turn, `CN[C@H]1C(C)[C@@H]1[NH2+]C` (some centres undefined) came in with a pKa (basic group) of 5.68.
The same measure, in the same setting: the same measure for `Nc1ccc2cc3cc(Cl)ccc3nc2c1`: 6.95.
